Reference: patent publication US20150250782A1, “Methods and Compositions for Hypotensive Resuscitation” (Pharmazz, Inc., priority 2012, published 2015)

Legend:
[1] = test system: hemorrhaged rats; assay: Fixed-pressure hemorrhage model, centhaquin in hypertonic saline; type: in vivo, rat
Experimental: A sham group of rats was cannulated, but not hemorrhaged. A vehicle group received hypertonic saline. Treatment groups received centhaquin (free base) (0.006, 0.017, or 0.05 mg/kg) in hypertonic saline. The values are expressed as mean±S.E.M. with n=6 rats in each group.
FIGS. 9-12 show the effect of centhaquin on blood lactate and base deficit in hemorrhaged rats (FIG. 9); on mean arterial pressure and heart rate (FIG. 10); on cardiac output and stroke volume (FIG. 11); and on systemic vascular resistance and stroke work (FIG. 12). Like the tests of FIG. 8, a sham group of rats was cannulated but not hemorrhaged, a vehicle group received hypertonic saline, and treatment groups received free base centhaquin (0.006, 0.017, or 0.05 mg/kg) in hypertonic saline. The values are expressed as mean±S.E.M. with n=6 rats in each group. *p<0.05 compared to baseline, #p<0.05 compared to hemorrhage, Δp<0.05 compared to vehicle treated group.
FIG. 13 is a plot of fraction survival vs. time for groups of hemorrhaged rats. The sham group of rats was cannulated, but not hemorrhaged. The vehicle group received hypertonic saline, while treatment groups received centhaquin (free base) (0.006, 0.017, or 0.05 mg/kg) in hypertonic saline.
Centhaquin increased the survival time of hemorrhaged rats compared to hypertonic saline treatment. Median survival time for 50% survival rate of rats treated with hypertonic saline was 137±12 minutes, while for rats treated with centhaquin it was 375±25 minutes. Fraction survival at 250 min was 0 when resuscitated with hypertonic saline, while treatment with centhaquin improved the fraction survival to 0.8. Even at 480 min after resuscitation with centhaquin, the fraction survival was 0.2. […] The findings of the present study are novel, unexpected, and are important due to recent reports of large clinical studies showing hypertonic saline has no benefit over normal saline in patients with hypovolemic shock or severe traumatic brain injury (Bulger, May et al. 2010; Bulger, May et al. 2011).

[2] = test system: dog femoral artery; conditions: 10 and 20 μg locally into femoral artery; Srimal, Mason et al. 1990; cited from earlier work

Structure (SMILES): Cc1cccc(N2CCN(CCc3ccc4ccccc4n3)CC2)c1 [centhaquin, 2-[2-(4-(3-methyphenyl)-1-piperazinyl)ethyl]-quinoline]
- survival time compared to other groups ([1]; 0.017 mg/kg): maximal survival time
- Fraction survival ([1]; at 250 min): 0.8
- Fraction survival ([1]; at 480 min after resuscitation): 0.2
- Median survival time for 50% survival rate ([1]; centhaquin in hypertonic saline): 375 ± 25 min
- blood flow [2]: increased blood flow
